Data on 1 compound can be found in patent US6048874A, “Parenteral metolazone formulations” (priority 1999, dated 2000).

In brackets after ≈: the same amount, converted by molar mass. Several values for one entry are separate records, joined by “and”; a condition that tells them apart may be missing. Equal values may be shown once.

For data set [1] the following is noted: cited from earlier work.
Data set [2] can be described thus: Apparent equilibrium solubility, spectrophotometric assay at 346 nm. Format: physicochemical. To be noted: aqueous propylene glycol/ethanol, organic solvent or mixture. Here is the method:
The apparent equilibrium solubility of metolazone in an aqueous solvent of 65% w/v propylene glycol/15% w/v ethyl alcohol (95% v/v in water) was determined as described below.
A 250 mg quantity of metolazone was equilibrated with 20 ml of a solvent consisting of 65% w/v propylene glycol, 15% w/v ethyl alcohol (95% v/v in water), and water for 24 hours at room temperature on a wrist action shaker. […] After equilibration, the solution was filtered through a 0.45 μm filter, diluted, and assayed spectrophotometrically at 346 nm.

Data set [3] can be described thus: Apparent equilibrium solubility redetermined, UV analysis. Format: physicochemical. Particulars: 65% w/v propylene glycol/15% w/v ethyl alcohol/water, UV 235 nm. Here is the method: (§1) The apparent equilibrium solubility was redetermined more accurately as follows. A 300 g quantity of ethyl alcohol (95% v/v in water) and 1300 g of propylene glycol were added to a 2000 ml volumetric flask and mixed well. Next, purified water was added q.s. to 2000 ml. This is the solvent.
(§2) Nine 30 ml amber bottles were filled with 25 ml of the solvent and 400 mg of metolazone and mixed on a wrist arm shaker for 24 hours (3 bottles), 48 hours (3 bottles), and 72 hours (3 bottles). The samples were filtered through a membrane filter (Whatman 25 mm 601X Nylon Filter (0.45 μm)). The concentration of the samples was determined by HPLC and by UV analysis.
The sample concentrations were measured by the UV absorbance at 235 nm using an UV/VIS spectrophotometer (HP 8453, available from Hewlett-Packard, Palo Alto, Calif.).

For data set [4] the following is noted: cited from earlier work. This is another data set of the same source.
A short description of data set [5]: Apparent equilibrium solubility redetermined, HPLC analysis. Format: physicochemical. To be noted: 65% w/v propylene glycol/15% w/v ethyl alcohol/water. The method, then: as §1, §2
The sample concentrations were analyzed by an HPLC system (HP 1100, available from Hewlett-Packard, Palo Alto, Calif.) equipped with a C18 column and an UV detector set at 230 nm. The mobile phase consisted of water and methanol at a ratio of 62/38 (v/v) and was used at a flow rate of 1.5 ml/minute.

The conditions of data set [6]: cited from earlier work. The source holds these as a separate data set.
For data set [7] the following is noted: diuretic; cited from earlier work.

For `Cc1ccccc1N1C(=O)c2cc(S(N)(=O)=O)c(Cl)cc2NC1C` (stereo not shown) [Metolazone, 7-chloro-1,2,3,4-tetrahydro-2-methyl-3-(2-methylphenyl)-4-oxo-6-quinazolinesulfonamide], in data set [1], the solubility in water result is “about 0.02 mg/ml”. Moreover, the solubility thermodynamic at 24 h in data set [2] (65% w/v propylene glycol, 15% w/v ethyl alcohol (95% v/v in water), water, 24 hours, room temperature, spectrophotometric 346 nm) was found to be 8360 µg/mL (≈ 22.9 mM); in data set [3] (aqueous propylene glycol/ethanol, organic solvent or mixture, shaken 24 hrs, read-out: Concentration of Metolazone, UV (apparent equilibrium solubility)), 8090 µg/mL (≈ 22.1 mM); in data set [5] (aqueous propylene glycol/ethanol, organic solvent or mixture, shaken 24 hrs, read-out: Concentration of Metolazone, HPLC (apparent equilibrium solubility)), 7900 µg/mL (≈ 21.6 mM). Moreover, the solubility thermodynamic in data set [2] (aqueous 65% w/v propylene glycol, 15% w/v ethyl alcohol, read-out: apparent equilibrium solubility limit) was around 8000 µg/mL (≈ 21.9 mM). Further, the solubility thermodynamic at 48 h is 7580 µg/mL (≈ 20.7 mM) in data set [3] (aqueous propylene glycol/ethanol, organic solvent or mixture, shaken 48 hrs, read-out: Concentration of Metolazone, UV (apparent equilibrium solubility)) and 7810 µg/mL (≈ 21.3 mM) in data set [5] (aqueous propylene glycol/ethanol, organic solvent or mixture, shaken 48 hrs, read-out: Concentration of Metolazone, HPLC (apparent equilibrium solubility)). The solubility thermodynamic at 72 h in data set [3] (aqueous propylene glycol/ethanol, organic solvent or mixture, shaken 72 hrs, read-out: Concentration of Metolazone, UV (apparent equilibrium solubility)) is 7300 µg/mL (≈ 20 mM); in data set [5] (aqueous propylene glycol/ethanol, organic solvent or mixture, shaken 72 hrs, read-out: Concentration of Metolazone, HPLC (apparent equilibrium solubility)), 7610 µg/mL (≈ 20.8 mM). In addition, the “Concentration of Metolazone, UV (apparent equilibrium solubility)” value in data set [3] (shaken 24 hrs, 1440 min) was 7540 µg/mL and 7410 µg/mL; in data set [3] (shaken 48 hrs, 2880 min), 7560 µg/mL and 7430 µg/mL; in data set [3] (shaken 72 hrs, 4320 min) it was 7310 µg/mL and 7550 µg/mL. In addition, the “decomposition when exposed to light” value in data set [4] is “decompose when exposed to light”. For the same compound, the “Concentration of Metolazone, HPLC (apparent equilibrium solubility)” value is 7730 µg/mL and 7650 µg/mL in data set [5] (shaken 24 hrs, 1440 min); 7680 µg/mL and 7660 µg/mL in data set [5] (shaken 48 hrs, 2880 min); 7680 µg/mL and 7910 µg/mL in data set [5] (shaken 72 hrs, 4320 min). Also, the “pH of aqueous solution sufficient to solubilize metolazone” value in data set [6] (aqueous solution, alkali hydroxides) is on record as “about 11”. For the same compound, the “chemical stability at high pH” value in data set [6] (pH of about 11) is on record as “chemically unstable”. The “potency, on a weight basis, vs quinethazone or hydrochlorothiazide” value in data set [7] is on record as “greater potency”.
